Converted amounts (≈) assume the structure as drawn.
What was measured:
[1] = system: Herpes simplex type 1 (HSV-1) strain E-377; test: CPE-inhibition assay, HSV-1 strain E-377 in Vero cells; format: cell-based, Herpes simplex virus type 1; conditions: HSV-1 (E-377), minimum cytotoxic concentration / ID50
Experimental: (§1) The challenge viruses were propagated and assayed in cells that were pregrown as monolayer cultures in plastic tissue culture flasks and 96-well plates, using cell culture media appropriate for the host cell cultures. The following viruses and host cell cultures were employed:
(§2) green monkey kidney (Vero)
(§3) On the day of use, a weighed sample of each compound to be evaluated was dissolved and diluted in serial 10^0.5 dilutions in the culture medium appropriate for each virus-host cell system.
Mammalian cells were pregrown as monolayers in wells of COSTAR 96-well tissue culture plates using suitable cell culture media. Stock viruses were pretitered according to the method of Reed and Muench (Amer. J. Hyg. 27:493-497, 1938) and diluted in cell culture medium to yield 32 CCID50 (cell culture infectious dose, 50%) units per 0.1 ml. Antiviral assays were designed to test seven concentrations of each compound, from cytotoxic to noncytotoxic levels, in triplicate against each of the challenge viruses in microtiter plate wells containing suitable cell monolayers. To each of the replicate cell cultures were added 0.1 ml of the test drug solution and 0.1 ml of virus suspension. Cell controls containing medium alone, virus controls containing medium and virus, and drug cytotoxicity controls containing medium and each drug concentration were run simultaneously with the test samples assayed in each experiment. […]
(§4) Antiviral activity was determined by calculating the degree of inhibition of virus-induced CPE in drug-treated, virus-infected cell cultures by means of a virus rating (VR). The VR is a standard weighted measurement of antiviral activity taking into account both the degree of CPE inhibition and drug cytotoxicity, and is determined by a modification of the method of Ehrlich et al. (Ann. N.Y. Acad. Sci. 130: 5-16, 1965) as described below. […]
(§5) The VR was calculated as 0.1 of the sum of the numerical differences between the recorded CPE grade of each test well and that of the corresponding virus control in the culture plate. […]

[2] = system: Human Cytomegalovirus (HCMV) strain AD169; test: Virus yield reduction assay, HCMV in MRC5 cells; format: cell-based
Experimental: Human diploid embryonic lung (MRC5) cells were grown in 35 mm wells of 6-well tissue culture plates. Subconfluent cell monolayers were rinsed with phosphate-buffered saline (PBS) and were exposed to 0.5 ml/well of HCMV (strain AD169) suspension for 1.5 hours at 37° C. The virus suspension was diluted in MEM+2% fetal bovine serum (FBS) to yield a multipicity of infection (MOI) of approximately 0.1 plaque forming units (PFU)/cell. Following the virus adsorption period, the inocula were removed and infected cell layers were rinsed with PBS. Aliquiots (2.0 ml) of each test drug concentration (dissolved in MEM supplemented with 2% FBS) were dispensed into triplicate cell cultures: two virus-infected cultures and one uninfected cytotoxicity control culture (exposed to medium without virus for 1.5 hours). Untreated virus-infected control cultutres and untreated, uninfected cell control cutures were fed with medium alone. The culture plates were incubated at 37° C. in a humidified atmosphere of 2% CO2 in air. All cell culture fluids were replaced with fresh drug and medium 48 hours postinfection (p.i.). On Day 6 p.i., the cell layers were examined microscopically for cytopathogenic effect (CPE) and drug cytotoxicity. The test and virus control cultures were then harvested by subjecting the cell layers to one cycle of freeze-thawing. The cellular material was scraped into the ambient medium and the contents from replicate cultures were pooled, dispensed into cryotubes and stored at -135° C. The harvested test and virus control samples were thawed and the infectious virus yield was determined by plaque assay in MRC5 cells grown in 12-well cluster plates. Inhibiton of HCMV replication by each test compound was determined by comparing the progeny virus yields in the drug-treated cultures with the progeny virus yeild in the untreated, virus-infected control cultures.

[3] = system: Herpes simplex type 2 (HSV-2) strain MS; test: CPE-inhibition assay, HSV-2 strain MS in Vero cells; format: cell-based, Herpes simplex virus type 2; conditions: HSV-2 (MS), minimum cytotoxic concentration / ID50
Experimental: as §1, §2, §3
Mammalian cells were pregrown as monolayers in wells of COSTAR 96-well tissue culture plates using suitable cell culture media. […]
as §4, §5

Vero cells = test: Cell viability (MTT) of uninfected test-compound control wells; format: cell-based, African green monkey; conditions: cell viability reduced by 25%
Experimental: Vero cells were pregrown as monolayers in wells of COSTAR 96-well tisue culture plates using suitable cell culture media. Stock viruses were pretitered according to the method of Reed and Muench (Amer. J. Hyg. 27 493 (1938)) and diluted in cell culture medium to yield 32 CCID50 (cell culture infectious dose, 50%) units per 0.1 mL. Antiviral assays were designed to test six concentrations of each compound, from cytotoxic to noncytotoxic levels, in triplicate against each of the challenge viruses in microtiter plate wells containing cell monolayers. To each of the replicate cell cultures were added 0.1 mL of the test-compound solution and 0.1 mL of virus suspension. Two compounds were evaluated per plate. The following controls were included:
(3) Test-compound cytotoxicity controls containing uninfected, test-compound treated cells;
The covered plates were incubated at 37° C. in a humidified atmosphere containing 2% CO2. When cytopathogenic effect (CPE) in untreated virus control wells reached 100%, 20 μL of 3-(4,5-dimethyl-thiazol-2-yl)-2,5-diphenyl tetrazolium bromide (MTT) (dissolved in PBS at 5 mg/mL) was pipetted into each of the plate wells. The plates were incubated at 37° C. for six hours; then 40 μL of 30% SDS (in 0.02N HCl) was added to each well. After overnight incubation at 37° C. the blue color or the MTT formazan was measured spectrophotometrically at 570 nm. The optical density (OD) value of each culture is a function of the amount of formazan produced which is proportional to the number of viable cells. A computer program was utilized to calculate the percent (CPE) reciprocal of % CPE reduction) of the virus-infected wells and % cell viability of the uninfected test-compound control wells.
The IC50 value is the minimum test-compound concentration (μg/mL) that inhibited CPE by 50%, calculated by using a regression analysis program for semilog curve fitting. The TC25 value is the minimum test-compound concentration (μg/mL) that reduced cell viability by 25%.

## O=c1ccn([C@@H]2O[C@H](CO)[C@H]2CO)c(=O)[nH]1 [Example 23, 1-([2'R,3'R,4'S]-3',4'-Bis(hydroxmethyl)-2'-oxetanyl)uracil]
[1]
  TI (Therapeutic Index): 1.0
[2]; 3.2 μg/ml
  HCMV yield: 4.7 log10 PFU/ml
[2]; 10 μg/ml
  HCMV yield: 4.5 log10 PFU/ml
[2]; 32 μg/ml
  HCMV yield: 4.4 log10 PFU/ml
[2]; 100 μg/ml
  HCMV yield: 4.0 log10 PFU/ml
[2]; 320 μg/ml
  HCMV yield: 3.0 log10 PFU/ml

## Nc1ccn([C@@H]2O[C@H](CO)[C@H]2CO)c(=O)n1 [Example 22, 1-([2'R,3'R,4'S]-3',4'-Bis(hydroxmethyl)-2'-oxetanyl)cytosine]
[1]
  TI (Therapeutic Index): 13.1
[3]
  TI (Therapeutic Index): 9.7
[2]; 0.032 μg/ml
  HCMV yield: 3.8 log10 PFU/ml
[2]; 0.1 μg/ml
  HCMV yield: 3.1 log10 PFU/ml
[2]; 0.32 μg/ml
  HCMV yield: 2.6 log10 PFU/ml
[2]; 1.0 μg/ml
  HCMV yield: 0.4 log10 PFU/ml
[2]; 3.2 μg/ml
  HCMV yield: < 0.1 log10 PFU/ml
[2]; 10 μg/ml
  HCMV yield: < 0.1 log10 PFU/ml

## O=c1[nH]c(=O)n([C@@H]2O[C@H](CO)[C@H]2CO)cc1C=CBr [Example 44, 1-([2'R, 3'R, 4'S]-3', 4'-Bis(hydroxmethyl)-2'-oxetanyl)-5-(2-bromo-1-vinyl)uracil]
Vero cells; HSV-1 (E-377) line
  TC25: 289 mg/L (≈ 868 µM)

## Cc1cn([C@@H]2O[C@H](CO)[C@H]2CO)c(=O)[nH]c1=O [Example 21, 1-([2'R,3'R,4'S]-3',4'-Bis(hydroxmethyl)-2'-oxetanyl)5-methyluracil]
[1]
  TI (Therapeutic Index): 1552
[3]
  TI (Therapeutic Index): > 7.2

## O=c1[nH]c(=O)n([C@@H]2O[C@H](CO)[C@H]2CO)cc1I [Example 42, 1-([2'R, 3'R, 4'S]-3', 4'-Bis(hydroxmethyl)-2'-oxetanyl)-5-iodouracil]
Vero cells; HSV-1 (E-377) line
  TC25: > 354 mg/L
Vero cells; HSV-2 (MS) line
  TC25: > 354 mg/L

## O=c1[nH]c(=O)n([C@@H]2O[C@H](CO)[C@H]2CO)cc1C=CI [Example 49, 1([2'R,3'R,4'S]-3',4'-n-Bis(hydroxmethyl)-2'-oxetanyl)-5-(2-iodo-1-vinyl)uracil]
Vero cells; HSV-1 (E-377) line
  TC25: > 380 mg/L

## O=c1[nH]c(=O)n([C@@H]2O[C@H](CO)[C@H]2CO)cc1C=CCl [Example 50, 1-([2'R,3'R,4'S]-3',4'-Bis(hydroxymethyl)-2'-oxetanyl)-5-(2-chloro-1-vinyl)uracil]
Vero cells; HSV-1 (E-377) line
  TC25: > 289 mg/L

## O=c1[nH]c(=O)n([C@@H]2O[C@H](CO)[C@H]2CO)cc1Br [Example 43, 1-([2'R, 3'R, 4'S]-3', 4'-Bis(hydroxmethyl)-2'-oxetanyl)-5-bromouracil]
Vero cells; HSV-1 (E-377) line
  TC25: 18.4 mg/L (≈ 59.9 µM)
Vero cells; HSV-2 (MS) line
  TC25: > 307 mg/L

## C=Cc1cn([C@@H]2O[C@H](CO)[C@H]2CO)c(=O)[nH]c1=O [Example 61, 1-([2'R, 3'R, 4'S]-3',4'-Bis(hydroxmethyl)-2'-oxetanyl)-5-vinyluracil]
Vero cells; HSV-2 (MS) line
  TC25: ≥ 254 mg/L
